Where two headings read alike, the source gives them in different places.
Tests used:
Daudi cells = experiment: Daudi CTG assay (Daudi proliferation, 72 hr, Cell Titer Glo); assay type: cell-based; conditions: Homo sapiens
Method: The compounds of the invention were tested on Daudi proliferation according to the procedure in Example 4 (for Daudi cells): Proliferation of RS4; 11, Ramos, Namalwa, RL, Molt-4 and Daudi cells. The compounds of the invention were tested on Daudi proliferation (72 hr), 3 fold dilution, and 9 points in duplicates. The top concentration for compounds of the invention was 10 uM; reference compound 7A top concentration was 10 uM; and Paclitaxel was 500 nM. Cell viability was determined using the Cell Titer Glo (CTG) reagent and detected by EnVision. EC50s were calculated by Prism 5.
The CellTiter-Glo™ Luminescent Cell Viability Assay uses ATP, a required co-factor of the luciferase reaction, as an indicator of metabolically active cells. The enzyme luciferase acts on luciferin in the presence of Mg^2+and ATP to produce oxyluciferin and to release energy in the form of luminescence. Since the luciferase reaction requires ATP, the luminescence produced is proportional to the amount of ATP present, an indicator of cellular metabolic activity.

[1] = system: NF-kB pathway, Ramos cells; experiment: NFkB/Ramos reporter assay; conditions: Homo sapiens, read-out: IC50 Cell-based selectivity: NF-kB pathway Ramos cells
Method: Cells were plated on the day prior to the assay. Media required included:
• 1. Cells were harvest from culture in Growth Medium and resuspend in Assay Medium at a density of 1.6×10^6 cells/ml. • 2. 32 μl per well of Assay medium were added to the cell-free control wells. 32 μl per well of a cell suspension were added to Unstimulated and Stimulated wells • 3. After plating, the plates were incubated in a 37° C./5% CO2 incubator for 16-20 hours. Preparation of DMSO Solution:
A solution was prepared of 5% DMSO solution (10×) in Assay Media.
A solution was prepared of 10×TNFα solution in Assay Medium. It is recommended to run a dose response curve to determine the EC80 for the Stimulation Solution.
• 1. 4 μl of 10×DMSO solution was added to each well. • 2. 4 μl of Assay Medium was added to the Unstimulated wells and to the Cell-Free wells. • 3. 4 μl of the 10×TNFα was added to the Stimulated wells. • 4. The assay plate was incubated in a humidified 37° C./5% CO2 incubator for 5 hours. Substrate Loading and Incubation
This protocol is designed for loading cells with LiveBLAzer™-FRET B/G Substrate (CCF4-AM) or CCF2-AM. If alternative substrates are used it is recommended to follow the loading protocol provided with the substrate. […]
Added 934 μl Solution C to the combined solutions from above step and vortexed. • 3. […] The cells were counted and then spun cells down and resuspended in 4° C. […]

Caco-2 = Caco-2 permeability and efflux; assay type: in vitro ADME
hERG = hERG (Homo sapiens, UniProt Q12809); experiment: hERG IC50
Sequence of hERG (Q12809 whole entry): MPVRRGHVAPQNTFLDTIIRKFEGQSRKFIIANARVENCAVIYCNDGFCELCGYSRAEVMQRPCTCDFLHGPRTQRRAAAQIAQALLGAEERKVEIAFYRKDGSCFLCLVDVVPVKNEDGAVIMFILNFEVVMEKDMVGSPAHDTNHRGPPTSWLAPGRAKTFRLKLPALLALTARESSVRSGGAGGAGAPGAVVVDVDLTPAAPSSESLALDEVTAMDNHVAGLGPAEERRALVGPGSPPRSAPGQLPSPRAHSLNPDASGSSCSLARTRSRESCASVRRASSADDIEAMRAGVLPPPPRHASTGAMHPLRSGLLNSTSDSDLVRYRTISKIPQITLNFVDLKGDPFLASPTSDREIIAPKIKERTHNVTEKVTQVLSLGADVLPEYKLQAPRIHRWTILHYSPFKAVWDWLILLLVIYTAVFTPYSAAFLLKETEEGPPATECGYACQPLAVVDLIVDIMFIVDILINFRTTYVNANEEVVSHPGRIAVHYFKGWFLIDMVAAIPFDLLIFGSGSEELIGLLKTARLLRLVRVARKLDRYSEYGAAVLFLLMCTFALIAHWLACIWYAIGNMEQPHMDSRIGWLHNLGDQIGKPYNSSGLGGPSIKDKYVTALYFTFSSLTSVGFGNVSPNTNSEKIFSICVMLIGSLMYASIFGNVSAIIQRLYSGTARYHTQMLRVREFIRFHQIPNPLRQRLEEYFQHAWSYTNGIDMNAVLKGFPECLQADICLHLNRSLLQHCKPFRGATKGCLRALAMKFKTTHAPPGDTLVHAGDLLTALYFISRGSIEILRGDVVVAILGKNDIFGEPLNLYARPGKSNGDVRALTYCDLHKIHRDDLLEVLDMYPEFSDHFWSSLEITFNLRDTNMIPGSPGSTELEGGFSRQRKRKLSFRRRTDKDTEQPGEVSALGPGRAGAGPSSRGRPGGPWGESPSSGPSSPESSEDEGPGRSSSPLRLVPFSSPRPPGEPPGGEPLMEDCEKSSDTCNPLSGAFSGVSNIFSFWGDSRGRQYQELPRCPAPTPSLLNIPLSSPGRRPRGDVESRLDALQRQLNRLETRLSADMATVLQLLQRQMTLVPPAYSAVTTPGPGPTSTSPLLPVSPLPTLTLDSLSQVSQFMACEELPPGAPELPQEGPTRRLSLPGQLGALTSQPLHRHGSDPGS

O=C(CN1CCOCC1)Nc1cccc(-c2nc(-c3c[nH]c(C(=O)N4CCCC4)c3)cs2)c1 [7A, 2-morpholino-N-(3-(4-(5-(pyrrolidine-1-carbonyl)-1H-pyrrol-3-yl)thiazol-2-yl)phenyl)acetamide]
IC50 (Daudi cells; Daudi, read-out: Daudi CTG assay IC50, historical data): 0.122 µM
IC50 (Daudi cells; Daudi proliferation 72 hr, control compounds, read-out: Daudi CTG assay control IC50): 0.102 µM
IC50 [1]: > 100 µM
Caco-2 Eflux (Caco-2; Caco-2): no
Caco-2 Papp A-B (×10^6/cm · s^−1) (Caco-2; Caco-2, A-B): 24 ×10^6/cm · s^−1
IC50 (hERG): > 10 µM

Source: patent publication US8937065B2, “Compositions and methods for modulating a kinase” (Clevexel Pharma, priority 2011, dated 2015)
